Among the data in ChEMBL document CHEMBL3046417 (2009) are Activity and Time values, retold here.

The structures appear in SMILES notation. Calls of active or inactive are those of the source. No cut-off for these calls is given here.

The test system of assay [1] is Cnaphalocrocis medinalis. Kind of assay: Reduction of larval weight gain in third-instar of Cnaphalocrocis medinalis in IR20 rice plant leaf at 12 ppm after 48 hr (reference value: 23.7 mg). It counts as functional.
The test system of assay [2] is Cnaphalocrocis medinalis. Kind of assay: Reduction of larval weight gain in third-instar of Cnaphalocrocis medinalis in IR20 rice plant leaf at 6 ppm after 25 days. It is filed as functional.
Assay [3] has as its system Cnaphalocrocis medinalis. Kind of assay: Antifeedant activity against fourth-instar of Cnaphalocrocis medinalis in IR20 rice plant leaf at 1.5 to 3 ppm after 4 days. It counts as functional, organism-based.
Assay [4] relates to Cnaphalocrocis medinalis. Kind of assay: Reduction of fecundity in third-instar of Cnaphalocrocis medinalis in IR20 rice plant leaf at 3 ppm relative to control. It is filed as functional. Further details: scale not given: the % may be the effect or the level left.
Assay [5] has as its system Cnaphalocrocis medinalis. Kind of assay: Reduction of larval weight gain in third-instar of Cnaphalocrocis medinalis in IR20 rice plant leaf at 3 ppm after 48 hr (reference value: 23.7 mg). It counts as functional.
In assay [6] the test system is Cnaphalocrocis medinalis. Kind of assay: Antifeedant activity against fourth-instar of Cnaphalocrocis medinalis in IR20 rice plant leaf assessed as leaf scraped at 12 ppm after 48 hr. It is filed as functional, organism-based.
Assay [7] deals with Cnaphalocrocis medinalis. Kind of assay: Antifeedant activity against fourth-instar of Cnaphalocrocis medinalis in IR20 rice plant leaf at 6 ppm after 4 days. It counts as functional.
For assay [8], the system named is Cnaphalocrocis medinalis. Kind of assay: Reduction of larval normal weight gain time in third-instar of Cnaphalocrocis medinalis in IR20 rice plant leaf at 3 ppm after 25 days (reference value: 23.5 +/- 0.56 days). It counts as functional.
Assay [9] relates to Cnaphalocrocis medinalis. Kind of assay: Reduction of larval normal weight gain time in third-instar of Cnaphalocrocis medinalis in IR20 rice plant leaf at 12 ppm after 25 days (reference value: 23.5 +/- 0.56 days). It is filed as functional.
For assay [10], the system named is Cnaphalocrocis medinalis. Kind of assay: Antifeedant activity against fourt-instar of Cnaphalocrocis medinalis in IR20 rice plant leaf assessed as leaf scraped at 1.5 ppm after 24 hr. It is filed as functional.
Assay [11] has as its system Cnaphalocrocis medinalis. Kind of assay: Reduction of egg production in third-instar of Cnaphalocrocis medinalis in IR20 rice plant leaf assessed as oviposition deterrence index at 12 ppm relative to control. It counts as functional. Details: scale not given: the % may be the effect or the level left.
Assay [12] deals with Cnaphalocrocis medinalis. Kind of assay: Reduction of larval weight gain in third-instar of Cnaphalocrocis medinalis in IR20 rice plant leaf at 6 ppm after 48 hr (reference value: 23.7 mg). It is filed as functional.
Assay [13] concerns Cnaphalocrocis medinalis. Kind of assay: Reduction of larval normal weight gain time in third-instar of Cnaphalocrocis medinalis in IR20 rice plant leaf at 6 ppm after 25 days (reference value: 23.5 +/- 0.56 days). It counts as functional.
The subject of assay [14] is Cnaphalocrocis medinalis. Kind of assay: Reduction of egg fertility in third-instar of Cnaphalocrocis medinalis in IR20 rice plant leaf assessed as oviposition deterrence index at 6 to 12 ppm. It counts as functional, organism-based.
Assay [15] has as its system Cnaphalocrocis medinalis. Kind of assay: Reduction of fecundity in third-instar of Cnaphalocrocis medinalis in IR20 rice plant leaf at 6 ppm relative to control. It is filed as functional. Further details: scale not given: the % may be the effect or the level left.
In assay [16] the test system is Cnaphalocrocis medinalis. Kind of assay: Reduction of egg production in third-instar of Cnaphalocrocis medinalis in IR20 rice plant leaf assessed as oviposition deterrence index at 6 ppm relative to control. It counts as functional. Details: scale not given: the % may be the effect or the level left.
For assay [17], the system named is Cnaphalocrocis medinalis. Kind of assay: Antifeedant activity against fourth-instar of Cnaphalocrocis medinalis in IR20 rice plant leaf at 12 ppm after 4 days. It counts as functional, organism-based.
In assay [18] the test system is Cnaphalocrocis medinalis. Kind of assay: Antifeedant activity against fourth-instar of Cnaphalocrocis medinalis in IR20 rice plant leaf assessed as leaf scraped at 12 ppm after 24 hr. It counts as functional.
Assay [19] deals with Cnaphalocrocis medinalis. Kind of assay: Reduction of fecundity in third-instar of Cnaphalocrocis medinalis in IR20 rice plant leaf at 25 ppm relative to control. Further details: scale not given: the % may be the effect or the level left. It is filed as functional.

Consider `CC(C)=CC(=O)C[C@@H](C)[C@H]1CC[C@@]2(C)[C@@H]3CC[C@@H]4[C@@]5(CC(=O)OC[C@@]4(C)C(=O)O)C[C@@]35CC[C@]12C` [BEDDOMEILACTONE], for which the Activity with Cnaphalocrocis medinalis [1] came to 7.2 mg; in the assay on Cnaphalocrocis medinalis [2] it was 12.1 mg; with Cnaphalocrocis medinalis [4] it was 39%; in the assay with Cnaphalocrocis medinalis [5], 13.6 mg; in the assay with Cnaphalocrocis medinalis [7] it was 80%; in the assay with Cnaphalocrocis medinalis [10] it was 8.97 cm2. Also, the Activity in the assay on Cnaphalocrocis medinalis [11] was determined as 83%; in the assay with Cnaphalocrocis medinalis [12] it was 10.2 mg; in the assay with Cnaphalocrocis medinalis [15], 19%; in the assay on Cnaphalocrocis medinalis [16], 60%; with Cnaphalocrocis medinalis [18], 0.87 cm2; in the assay on Cnaphalocrocis medinalis [19] it was 3%. The outcome in the assay with Cnaphalocrocis medinalis [3], with Cnaphalocrocis medinalis [6], in the assay with Cnaphalocrocis medinalis [14] and in the assay with Cnaphalocrocis medinalis [17] was Active. Moreover, the Time in the assay with Cnaphalocrocis medinalis [8] is 37.2 days; in the assay on Cnaphalocrocis medinalis [9], 48.3 days; with Cnaphalocrocis medinalis [13], 39.2 days.
